Test results taken from patent publication EP0942066A2, “Cell line of blood-brain barrier” (KYOWA HAKKO KOGYO CO., LTD., priority 1998, dated 1999).

Key:
[1] = target: T1, GLUT1 (Mus musculus, UniProt P17809); experiment: Incorporation of 3-O-methyl-D-glucose (3-OMG) into brain capillary endothelial cell lines TM-BBB (glucose transfer ability); assay type: cell-based; details: incorporation of [^3H]3-OMG into TM-BBB cell lines, uptake buffer 37°C, 20 seconds
T1 construct: A band indicating the expression of GLUT-1 was confirmed in any of TM-BBB1, TM-BBB2, TM-BBB3, TM-BBB4 and TM-BBB5; endogenous in cells; host or cells: TM-BBB1 to TM-BBB5, conditionally immortalised mouse brain capillary endothelial cell lines (SV40tsA58 large T transgenic mice)
T1 sequence (P17809 1-492): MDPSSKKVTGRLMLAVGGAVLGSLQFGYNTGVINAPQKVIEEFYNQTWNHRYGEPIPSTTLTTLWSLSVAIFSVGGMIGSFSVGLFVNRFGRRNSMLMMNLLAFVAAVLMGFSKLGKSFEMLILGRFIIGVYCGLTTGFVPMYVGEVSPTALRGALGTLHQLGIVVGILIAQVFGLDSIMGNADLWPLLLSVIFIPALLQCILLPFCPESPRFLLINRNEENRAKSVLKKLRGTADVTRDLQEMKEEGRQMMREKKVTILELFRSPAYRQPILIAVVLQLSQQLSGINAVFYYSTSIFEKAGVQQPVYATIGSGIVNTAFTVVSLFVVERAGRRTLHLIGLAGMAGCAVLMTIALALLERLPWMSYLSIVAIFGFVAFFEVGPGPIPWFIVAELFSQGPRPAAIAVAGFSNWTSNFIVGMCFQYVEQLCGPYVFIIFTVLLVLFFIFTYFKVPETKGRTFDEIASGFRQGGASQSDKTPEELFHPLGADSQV
Description: (§1) Each of TM-BBB's was plated onto a 24-well cell culture plate at a density of 3×10^5 cells/well/mℓ medium and cultured in a CO2 incubator at 33°C for 24 hours to make the cells confluent. The incorporation of 3-OMG was measured in the following manner. […] Ten seconds later, the uptake buffer was removed, and the cells were washed with the uptake buffer at 4°C. Subsequently, the uptake buffer was removed after 20 seconds, 30 seconds, 1 minute, or 10 minutes, and the cells were treated in the same manner. […] Twenty seconds later, the uptake buffer was removed, and the cells were washed with the uptake buffer at 4°C. Then, the cells were lyzed overnight with 1 mℓ PBS containing 1% Triton X-100 and then measured for radioactivity in a liquid scintillation counter. […] Pharmacobio-Dyn, 4: 879-885 (1981)] using a plot formula (V = Vmax x [S]/(Km + [S]); […]

[2] = tested on: L-glutamic acid transporter; experiment: Incorporation of [^3H]L-glutamic acid into astrocyte cell lines TR-AST (glutamic acid transport ability); assay type: cell-based, rat; details: for incorporation of [^3H]L-Glu, expressed in % relative to the control: 1 mM of the inhibitor, control = 100±5; for inhibition of incorporation of [^3H]L-Glu (in words): other substrates of the transporter
Description: The glutamic acid transport ability of the cell lines obtained in Example 4, that is, TR-AST32, TR-AST811, TR-AST912, TR-AST932, TR-AST943 was examined by incorporation of [^3H]L-glutamic acid ([^3H]L-Glu). Each TR-AST's was plated onto a 24-well cell culture plate at a density of 2×10^5 cells/well and cultured in a CO2 incubator at 33°C to make the cells confluent. The incorporation of [^3H]L-Glu was measured in the following manner. First, the medium was suctioned, and the cells were washed with an uptake buffer at 37°C, and 0.2 mℓ uptake buffer containing 46.3 kBq/well [^3H]L-Glu and 9.25 kBq/mℓ [^14C]inulin at 37°C was added, and the tracer solution was removed after 2, 5, 10 or 30 minutes, and the cells were washed 3 times with 1 mℓ uptake buffer at 4°C. To the cells, 0.75 mℓ of 1% Triton X-100 was added, and the cells were allowed to stand overnight so that they were lyzed and then the lysate was measured for radioactivity in a liquid scintillation counter.
The Km and Vmax for incorporation of […] were analyzed using a non-linear minimum square program [Yamaoka, K. et al., J. Pharmacobio-Dyn, 4, 879-885 (1981)] using a plot formula (V = Vmax × [S]/(Km + [S]); Vmax is a maximum rate constant, Km is a Michaelis constant, and [S] is a substrate concentration) for the rate of incorporation of L-Glu. […]

[3] = substrate: CO[C@@H]([C@H](O)[C@H](O)CO)[C@@H](O)C=O; experiment: Incorporation of 3-O-methyl-D-glucose (3-OMG) into brain capillary endothelial cell lines TM-BBB (glucose transfer ability); assay type: cell-based, mouse; details: other: incorporation of [^3H]3-OMG into TM-BBB cell lines, uptake buffer 37°C, 20 seconds, 0.5-50 mM unlabelled 3-OMG, pH 7.4
Description: as §1

Molecule | incorporation of [^3H]L-Glu, expressed in % relative to the control [2] [%] | inhibition of incorporation of [^3H]L-Glu (in words) [2] | further results
CO[C@@H]([C@H](O)[C@H](O)CO)[C@@H](O)C=O [3-OMG, 3-O-methyl-D-glucose] | – | – | maximum incorporation rate constant (Vmax) [1]: 44 nmol/min/mg protein
N[C@H](CC(=O)O)C(=O)O [D-Asp, D-aspartic acid] | 67±6 | significantly inhibited | –
N[C@@H](CC(=O)O)C(=O)O [L-Asp, L-aspartic acid] | 57±2 | significantly inhibited | –
N[C@@H](CCC(=O)O)C(=O)O [L-Glu, L-glutamic acid] | 8.3±1.5 | – | maximum incorporation rate constant (Vmax) ([2]; incorporation of [^3H]L-Glu into TR-AST cell lines, 37°C): 1.8 nmol/min/mg protein; Km ([2]; incorporation of [^3H]L-Glu into TR-AST cell lines, 37°C, read-out: Michaelis constant (Km)): 96 µM
GLUT1 (Mus musculus) (protein, A band indicating the expression of GLUT-1 was confirmed in any of TM-BBB1, TM-BBB2, TM-BBB3, TM-BBB4 and TM-BBB5; endogenous in cells; host or cells: TM-BBB1 to TM-BBB5, conditionally immortalised mouse brain capillary endothelial cell lines (SV40tsA58 large T transgenic mice)) MDPSSKKVTGRLMLAVGGAVLGSLQFGYNTGVINAPQKVIEEFYNQTWNHRYGEPIPSTTLTTLWSLSVAIFSVGGMIGSFSVGLFVNRFGRRNSMLMMNLLAFVAAVLMGFSKLGKSFEMLILGRFIIGVYCGLTTGFVPMYVGEVSPTALRGALGTLHQLGIVVGILIAQVFGLDSIMGNADLWPLLLSVIFIPALLQCILLPFCPESPRFLLINRNEENRAKSVLKKLRGTADVTRDLQEMKEEGRQMMREKKVTILELFRSPAYRQPILIAVVLQLSQQLSGINAVFYYSTSIFEKAGVQQPVYATIGSGIVNTAFTVVSLFVVERAGRRTLHLIGLAGMAGCAVLMTIALALLERLPWMSYLSIVAIFGFVAFFEVGPGPIPWFIVAELFSQGPRPAAIAVAGFSNWTSNFIVGMCFQYVEQLCGPYVFIIFTVLLVLFFIFTYFKVPETKGRTFDEIASGFRQGGASQSDKTPEELFHPLGADSQV | – | – | Km [3]: 6600 µM
